Laboratory results from patent US20210308034A1, “PREBIOTIC COMPOSITIONS AND METHODS FOR MAINTAINING A HEALTHY SKIN MICROBIOTA” (KIMBERLY-CLARK WORLDWIDE, INC., priority 2018, published 2021).

Columns and labels:
Assay type in all cases: cell-based
[1] = tested on: Klebsiella pneumoniae (ATCC BAA-2146); conditions: Pathogenic; carbon microarray plate, OD 600 nm, 36 hr, 33° C.; positive = more than 0.05 OD units above zero; blank cell = not utilized
[2] = tested on: Staphylococcus aureus (ATCC 6538); assay: Carbohydrate Screening Test Method (Biolog phenotype microarray), Bacteria Code G; conditions: Pathogenic; carbon microarray plate, OD 600 nm, 36 hr, 33° C.; positive = more than 0.05 OD units above zero; blank cell = not utilized
Text: (§1) After creating desired ratios of various commensal skin bacteria in a healthy skin microbiome, 188 different carbohydrate sources were screened as the next step in determining potential prospects for skin microbiota balancing agents. The screening process was set up to determine which carbohydrate sources promoted commensal and/or pathogenic bacteria as well as to obtain individual and combinations of carbohydrate sources that could serve as microbiota balancing agents that can support or maintain the healthy proportions of commensal skin bacteria of Corynebacterium, Staphylococcus, and Micrococcus. The screening was conducted utilizing Biolog phenotype microarray plates (Hayward, Calif.). Table 1 provides a coded list of the commensal and pathogenic skin bacteria that the carbohydrates were screened against.
(§2) Table 2 provides the results of screening various carbohydrate sources against the commensal and pathogenic bacteria codes listed in Table 1. The Bacteria Codes B, D, E, I, and J are commensal bacteria and are shaded in Table 2 for references purposes. The bacteria codes were each placed in a carbon microarray plate and screened through the Carbohydrate Screening Test Method, as described in the Test Methods section herein. If a particular bacteria code utilized a specific carbohydrate source as described in the Carbohydrate Screening Test Method, then the corresponding cell in Table 2 was marked with a Y (short for “Yes”). […] Many of the carbohydrate sources were utilized by both commensal and pathogenic bacteria, and as such, would not provide an advantage for selective growth of the commensal bacteria. However, some of the carbohydrate sources were only used by commensal bacteria and were identified for further testing as described herein.
(§3) The study employed 10 representative skin bacteria; Staphylococcus epidermidis ATCC 14990, Staphylococcus epidermidis M23864:W2, Staphylococcus aureus ATCC 6538, Staphylococcus aureus ATCC 25904 (Newman), Pseudomonas aeruginosa ATCC 9027, Micrococcus luteus ATCC […], Micrococcus luteus SK58, Klebsiella pneumoniae ATCC BAA-2146, Corynebacterium amycolatum SK46, and Corynebacterium minutissimum ATCC 23348. Cultures were started from freezer bead stocks by placing a single bead into 20 mL of tryptic soy broth (TSB) for all organisms except C. amycolatum SK46 and C. minutissimum ATCC 23348, which were placed into brain heart infusion (BHI) broth. Cultures were grown for about 24 hr at 37° C. except M. luteus ATCC 49732 and M. luteus SK58, which were grown at 30° C. A passage of the culture was made using a sterile swab and streaked onto two M9*2 agar plates to prepare the incubated culture for the phenotype microarray pate according to Table 4. Plates were incubated for about 24 hr at 37° C. except for M. luteus ATCC 49732 and M. luteus SK58, which were incubated at 30° C. for 24 hr.
(§4) All cultures were harvested and washed before inoculation into the carbon microarray plate (BiOLOG, Hayward Calif.), with Biolog Plates PM1 and PM2 each having a source definition of Carbon. The bacteria on the M9*2 agar was suspended via agitation with an inoculating loop in 1 mL of M9*1 media for collection in a 1.7 mL micro centrifuge tube, as noted in Table 4. The bacteria was suspended again in M9*1 media, agitated, and collected into the same 1.7 mL microcentrifuge tube used in the previous step. The tube was centrifuged for 5 minutes at 4,000×G, supernatant decanted, the pellet was resuspended in 1 mL of M9*1 media, and vortex. This washing process was repeated for a total of 4 times.
(§5) A tenfold dilution in M9*1 media was performed using 1 mL of the washed bacterial culture. Of the tenfold dilution 200 μL was placed in an untreated 96-well plate (Falcon, Pasadena Tx.) for an initial optical density (OD) reading at a wavelength of 600 nm. The OD was used to correlate to colony forming units (CFU) per milliliter by using linear regression lines for each organism. […]

[3] = tested on: Staphylococcus aureus (ATCC 25904) (Newman); assay: Carbohydrate Screening Test Method (Biolog phenotype microarray), Bacteria Code H; conditions: Pathogenic; carbon microarray plate, OD 600 nm, 36 hr, 33° C.; positive = more than 0.05 OD units above zero; blank cell = not utilized
Text: as §1, §2, §3, §4, §5

[4] = tested on: Staphylococcus epidermidis (M23864:W2); assay: Carbohydrate Screening Test Method (Biolog phenotype microarray), Bacteria Code J; conditions: Commensal; carbon microarray plate, OD 600 nm, 36 hr, 33° C.; positive = more than 0.05 OD units above zero; blank cell = not utilized
[5] = tested on: Pseudomonas aeruginosa (ATCC 9027); conditions: Pathogenic; carbon microarray plate, OD 600 nm, 36 hr, 33° C.; positive = more than 0.05 OD units above zero; blank cell = not utilized
Outline: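 Carbon-source utilisation screen on Biolog PM1/PM2 plates: strain grown in TSB then on M9*2 agar, each ~24 h at 37 °C, washed four times in M9*1 and diluted tenfold. OD600 correlated to CFU/mL; each carbohydrate scored Yes when utilised.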

[6] = tested on: Corynebacterium jeikum (ATCC 33033); assay: Carbohydrate Screening Test Method (Biolog phenotype microarray), Bacteria Code B; conditions: Commensal; carbon microarray plate, OD 600 nm, 36 hr, 33° C.; positive = more than 0.05 OD units above zero; blank cell = not utilized
Outline: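 Strain from M9*2 agar was suspended in M9*1 medium, washed and inoculated into Biolog PM1/PM2 carbon plates. Carbohydrate use was scored yes/no, and growth rate and maximum yield were derived with GrowthRates 2.1, with max yields used for commensal ratios.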

[7] = tested on: Staphylococcus epidermidis (ATCC 14990); assay: Carbohydrate Screening Test Method (Biolog phenotype microarray), Bacteria Code I; conditions: Commensal; carbon microarray plate, OD 600 nm, 36 hr, 33° C.; positive = more than 0.05 OD units above zero; blank cell = not utilized
Outline: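 A tenfold dilution was read for optical density at 600 nm to estimate CFU per milliliter. The bacteria were then inoculated into Biolog carbon phenotype microarray plates PM1 and PM2 to screen 188 carbohydrate sources for utilization by this commensal organism.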

[8] = tested on: Corynebacterium minutissimum (ATCC 23348); assay: Carbohydrate Screening Test Method (Biolog phenotype microarray), Bacteria Code A; conditions: Pathogenic; carbon microarray plate, OD 600 nm, 36 hr, 33° C.; positive = more than 0.05 OD units above zero; blank cell = not utilized
Text: as §1, §2, §3, §4, §5

[9] = tested on: Micrococcus luteus (SK58); assay: Carbohydrate Screening Test Method (Biolog phenotype microarray), Bacteria Code E; conditions: Commensal; carbon microarray plate, OD 600 nm, 36 hr, 33° C.; positive = more than 0.05 OD units above zero; blank cell = not utilized
Outline: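 Each commensal strain grown in Biolog carbon phenotype microarray plates with single carbohydrate sources. Growth curves fitted with GrowthRates 2.1 to give growth rate and maximum yield. Max yields used to calculate predicted co-culture ratios between Corynebacterium, Staphylococcus and Micrococcus, compared with desired ratios of 1.3, 1.4 and 1.1.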

OC[C@H]1O[C@H](O)[C@H](O)[C@@H](O)[C@@H]1O [α-D-Glucose]
Y: Carbohydrate Screening Results, Bacteria Code C [1] | Carbohydrate Screening Results, Bacteria Code G [2] | Carbohydrate Screening Results, Bacteria Code H [3] | Carbohydrate Screening Results, Bacteria Code J [4] | Carbohydrate Screening Results, Bacteria Code F [5] | Carbohydrate Screening Results, Bacteria Code B [6] | Carbohydrate Screening Results, Bacteria Code I [7] | Carbohydrate Screening Results, Bacteria Code A [8] | Carbohydrate Screening Results, Bacteria Code E [9]
